In patent publication US20140072624A1, “UNIT DOSE FORM FOR ORAL ADMINISTRATION” (THRESHOLD PHARMACEUTICALS, INC., priority 2011, published 2014):
Where two headings read alike, the source gives them in different places.

What was measured:
[1] = Pharmacokinetics of TH-302 in rats after a single oral (PO) dose; type: in vivo, Sprague-Dawley rats
Procedure: TH-302 (1-methyl-2-nitro-1H-imidazole-5-yl) N,N′-bis(2-bromoethyl) diamidophosphate, m.w.=449) that was about 96% pure based on high performance liquid chromatography (HPLC) analysis, was used. Male Sprague-Dawley rats (n=3 per time point) were administered a single oral dose of 100 mg/kg TH-302 (see, Table 1 and FIG. 1).

[2] = Pharmacokinetics of TH-302 in rats after a single IV dose; type: in vivo, Sprague-Dawley rats; conditions: rat; for Tmax: Sprague-Dawley, plasma
[3] = Single dose pharmacokinetics of TH-302 after a 30-min intravenous infusion in rats; type: in vivo; conditions: for Vd: read-out: Vss
[4] = male Sprague-Dawley rats, single oral dose 100 mg/kg in normal saline
[5] = rat, PO, 100 mg/kg, composite data, n = 3 per time point
[6] = Sprague-Dawley, rat, plasma, female rats, 50 mg/kg, 30-min IV infusion
[7] = Sprague-Dawley, rat, plasma, female rats, 100 mg/kg, 30-min IV infusion
[8] = Sprague-Dawley, rat, plasma, male rats, 50 mg/kg, 30-min IV infusion
[9] = Sprague-Dawley, rat, plasma, male rats, 100 mg/kg, 30-min IV infusion
[10] = Sprague-Dawley, rat, plasma, male rats, 200 mg/kg, 30-min IV infusion
[11] = male rats, 100 mg/kg, 30-min IV infusion
[12] = rat, plasma, female rats, 200 mg/kg, 30-min IV infusion

## Cn1c(COP(=O)(NCCBr)NCCBr)cnc1[N+](=O)[O-] [TH-302]
[1]; male Sprague-Dawley rats, single oral dose 100 mg/kg
  time of mean peak plasma concentration (first sampled time point): 15 min
[1]; [4]
  mean peak plasma concentration: 15.8 µg/mL
  time of mean peak plasma concentration (first sampling time point): 0.25 h
[1]; male Sprague-Dawley rats, single oral dose 100 mg/kg, 100 mg/kg
  oral absorption (in words): rapidly and well absorbed
[1]; male rat, PO, 100 mg/kg, composite data, n = 3 per time point
  t1/2: 1.6 h
[1]; male, Sprague-Dawley, plasma, rat, PO, 100 mg/kg, composite data, n = 3 per time point
  Tmax: 15 min
[1]; male, Sprague-Dawley, rat, plasma, oral, 100 mg/kg, male rat, PO, 100 mg/kg vs 100 mg/kg 30 minute IV infusion, read-out: Oral F (absolute oral bioavailability)
  bioavailability: 77.3%
[1]; [5]
  AUC (total area under the concentration-time curve from zero to infinity): 13.1 μg-
  Cmax: 15.8 μg/m
[1]; rat, plasma, male Sprague-Dawley rats, single oral dose 100 mg/kg, read-out: mean area under the curve (AUC)
  AUC: 13100 ng·h/mL
[2]; 1 mg/kg, n = 3, mean ± S.D.
  Tmax: 1.98 min
  AUC (total area under the concentration-time curve from zero to infinity): 0.221 ± 0.054 μg-
  Cmax: 0.802 ± 0.165 μg/m
[2]; 5 mg/kg, n = 2, mean ± S.D.
  Tmax: 1.98 min
[2]; 20 mg/kg, n = 3, mean ± S.D.
  Tmax: 1.98 min
  AUC (total area under the concentration-time curve from zero to infinity): 3.30 ± 0.36 μg-
  Cmax: 13.5 ± 1.52 μg/m
[2]; 50 mg/kg, n = 3, mean ± S.D.
  Tmax: 1.98 min
  AUC (total area under the concentration-time curve from zero to infinity): 8.47 ± 0.02 μg-
  Cl: 5.91 ± 0.25 L/h/kg
  Cmax: 35.5 ± 3.01 μg/m
  Vss: 1.67 ± 0.04 L/kg
[2]; 5 mg/kg, n = 2
  AUC (total area under the concentration-time curve from zero to infinity): 0.826 μg-
  Cmax: 3.82 μg/m
[3]; [6]
  Cmax: 14100 ng/mL
  Tmax: 31 min
  clearance: 115 mL/min/kg
  Vd: 2.81 L/kg
[3]; [7]
  Cmax: 30000 ng/mL
  Tmax: 30 min
  clearance: 103 mL/min/kg
  Vd: 2.59 L/kg
[3]; Sprague-Dawley, rat, plasma, female rats, 200 mg/kg, 30-min IV infusion
  Vd: 2.35 L/kg
[3]; [8]
  Cmax: 15600 ng/mL
  Tmax: 31 min
  clearance: 104 mL/min/kg
  Vd: 2.57 L/kg
[3]; [9]
  Tmax: 33 min
  clearance: 98.3 mL/min/kg
  Vd: 2.59 L/kg
[3]; Sprague-Dawley, rat, plasma, male rats, 100 mg/kg, 30-min IV infusion (end of infusion)
  Cmax: 30900 ng/mL
[3]; [10]
  Cmax: 62500 ng/mL
  Tmax: 33 min
  clearance: 89.7 mL/min/kg
  Vd: 2.51 L/kg
[3]; female, Sprague-Dawley, rat, plasma, iv, 50 mg/kg, female rats, 50 mg/kg, 30-min IV infusion, read-out: AUC
  AUC: 7330 ng·h/mL
[3]; female, Sprague-Dawley, rat, plasma, iv, 50 mg/kg, female rats, 50 mg/kg, 30-min IV infusion, read-out: Half-Life (converted)
  half-life: 19.1 min
[3]; female, Sprague-Dawley, rat, plasma, iv, 100 mg/kg, female rats, 100 mg/kg, 30-min IV infusion, read-out: AUC
  AUC: 16100 ng·h/mL
[3]; female, Sprague-Dawley, rat, plasma, iv, 100 mg/kg, female rats, 100 mg/kg, 30-min IV infusion, read-out: Half-Life (converted)
  half-life: 17.2 min
[3]; female, rat, plasma, iv, 200 mg/kg, female rats, 200 mg/kg, 30-min IV infusion, read-out: AUC
  AUC: 40600 ng·h/mL
[3]; female, rat, plasma, iv, 200 mg/kg, female rats, 200 mg/kg, 30-min IV infusion, read-out: Half-Life (converted)
  half-life: 23.4 min
[3]; [11]
  AUC: 17000 ng·h/mL
  half-life: 16.1 min
[3]; male, Sprague-Dawley, rat, plasma, iv, 50 mg/kg, male rats, 50 mg/kg, 30-min IV infusion, read-out: AUC
  AUC: 7940 ng·h/mL
[3]; male, Sprague-Dawley, rat, plasma, iv, 50 mg/kg, male rats, 50 mg/kg, 30-min IV infusion, read-out: Half-Life (converted)
  half-life: 20 min
[3]; male, Sprague-Dawley, rat, plasma, iv, 100 mg/kg, male rats, 100 mg/kg, 30-min IV infusion, read-out: AUC
  AUC: 17100 ng·h/mL
[3]; male, Sprague-Dawley, rat, plasma, iv, 100 mg/kg, male rats, 100 mg/kg, 30-min IV infusion, read-out: Half-Life (converted)
  half-life: 16.2 min
[3]; male, Sprague-Dawley, rat, plasma, iv, 200 mg/kg, male rats, 200 mg/kg, 30-min IV infusion, read-out: AUC
  AUC: 37600 ng·h/mL
[3]; male, Sprague-Dawley, rat, plasma, iv, 200 mg/kg, male rats, 200 mg/kg, 30-min IV infusion, read-out: Half-Life (converted)
  half-life: 19.4 min
[3]; [12]
  Cmax: 71100 ng/mL
  Tmax: 41 min
  clearance: 80.7 mL/min/kg
